Assay results from patent US20210115104A1, “AMYLIN ANALOGUES” (Zealand Pharma A/S, priority 2015, published 2021).
Like-named read-outs stand apart in the source and are kept apart here. *1 amine or outer side, *2 acyl side, *3 side chain or, on linkers, in order; H or OH if unused. Where a SMILES comes first, the peptide text is derived from it. Bridges are numbered along the chain shown (N, C = ends). [ ]: non-standard residue; d: D form. The star is where a group is joined. C20 diacid = O=C(O)CCCCCCCCCCCCCCCCCCC(=O)*; γGlu = O=C(O)[C@H](CCC(=O)[*:2])N[*:1]; Hyp = O=C(O)[C@@H]1C[C@@H](O)CN1; NMeI = CC[C@H](C)[C@H](NC)C(=O)O; Sar = CNCC(=O)O

Legend:
[1] = Assessment of solubility (turbidity absorbance at 325 nm); type: physicochemical; settings: named as exception to solubility ≥1 mg/ml
Protocol: A stock solution of the test peptide (2 mg/ml; determined from the weighed amount of peptide) in demineralized water adjusted to pH 2.5 with HCl was prepared, and aliquots were diluted 1:1 in 100 mM acetate buffer (pH 4.0 and pH 5.0), 100 mM histidine buffer (pH 6.0 and pH 7.0) and 100 mM phosphate buffer (pH 6.0, pH 7.0 and pH7.5), respectively, and loaded in a standard flat-bottom, non-sterile 96-well UV Microplate. The absorbance of samples (single samples, n=1) at 280 and 325 nm was measured in an absorbance-based plate reader, which was preheated to ambient temperature (typically 25° C.). The turbidity absorbance criterion for a peptide solubility of ≥1 mg/ml was an absorbance at 325 nm of s 0.02 absorbance units (which is 5 to 6 times the standard deviation of 8 buffer samples in a plate).

[2] = biological target: T1, human calcitonin receptor (hCTR2) (Homo sapiens, UniProt P30988); assay: hCTR2 cAMP assay (AlphaScreen) in COS7 cells; type: cell-based; settings: cAMP induction, COS7 cells expressing hCTR2; Table 1; read-out: hCTR2 EC50
T1 construct: expressed in transfected cells
T1 sequence (P30988 25-474): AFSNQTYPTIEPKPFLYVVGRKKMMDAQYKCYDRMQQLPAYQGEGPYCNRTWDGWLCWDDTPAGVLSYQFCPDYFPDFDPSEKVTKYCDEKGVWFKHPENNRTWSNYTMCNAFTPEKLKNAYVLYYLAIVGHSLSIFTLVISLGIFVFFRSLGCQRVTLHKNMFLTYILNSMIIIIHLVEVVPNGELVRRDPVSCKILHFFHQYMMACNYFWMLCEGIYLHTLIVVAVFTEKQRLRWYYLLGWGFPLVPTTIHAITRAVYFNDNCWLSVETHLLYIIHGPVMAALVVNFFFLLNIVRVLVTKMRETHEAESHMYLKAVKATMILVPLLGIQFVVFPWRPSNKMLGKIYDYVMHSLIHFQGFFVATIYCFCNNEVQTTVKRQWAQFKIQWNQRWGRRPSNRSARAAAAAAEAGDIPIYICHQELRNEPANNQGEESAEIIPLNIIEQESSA
Outline: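 cAMP induction, read by AlphaScreen after lysis, gives EC50 values via 4PL curve fitting. Peptides were applied at rising concentrations for 15 min at 37 °C, with IBMX and 0.1% casein in HEPES-buffered Tyrode pH 7.4, to COS7 cells (no endogenous RAMPs) stably expressing human CTR2.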

[3] = biological target: T2, human amylin receptor 3 (hAMYR3), hCTR2 co-expressed with hRAMP3 (Homo sapiens, UniProt O60896+P30988); assay: hAMYR3 cAMP assay (AlphaScreen) in COS7 cells; type: cell-based; settings: cAMP induction, COS7 cells expressing hAMYR3; Table 1; read-out: hAMYR3 EC50
T2 construct: expressed in transfected cells
T2 sequence (P30988 25-474): T1 sequence (P30988 25-474)
T2 sequence (O60896 24-148 partner): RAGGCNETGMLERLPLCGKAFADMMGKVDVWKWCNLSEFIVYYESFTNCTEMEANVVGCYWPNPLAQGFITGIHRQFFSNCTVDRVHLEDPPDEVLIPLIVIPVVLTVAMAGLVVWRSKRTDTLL
Outline: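 EC50 values derive from 4PL curve fits of cAMP (AlphaScreen) in lysates of RAMP-naive COS7 cells stably carrying hCTR2 plus hRAMP3. Peptide dilution series were applied for 15 min at 37 °C in pH 7.4 Tyrode buffer containing 100 µM IBMX and 0.1% casein.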

[4] = phosphate buffer, pH 7.5, read-out: solubility at pH 7.5

solubility ([1]; pH 6.0, read-out: solubility at pH 6.0)	solubility [1, 4]	EC50 [2]	EC50 [3]	solubility ([1]; pH 7.0, read-out: solubility at pH 7.0)	Compound
< 1000 µg/mL	< 1000 µg/mL	60 pM	120 pM		CC[C@H](C)[C@@H](C(=O)N[C@@H](CC(C)C)C(=O)N[C@@H](CO)C(=O)N[C@@H](CO)C(=O)N[C@H](C(=O)N[C@@H](CCC(=O)O)C(=O)N[C@H](C(=O)NCC(=O)N[C@@H](CO)C(=O)N[C@@H](CO)C(=O)N[C@H](C(=O)N1CCC[C@H]1C(N)=O)[C@@H](C)O)C(C)C)[C@@H](C)O)N(C)C(=O)[C@H](C)NC(=O)CN(C)C(=O)[C@H](Cc1ccccc1)NC(=O)[C@H](CO)NC(=O)[C@H](CO)NC(=O)[C@H](CCCNC(=N)N)NC(=O)[C@@H](NC(=O)[C@H](CC(C)C)NC(=O)[C@H](Cc1ccccc1)NC(=O)[C@H](Cc1c[nH]cn1)NC(=O)[C@H](C)NC(=O)[C@H](CC(C)C)NC(=O)[C@H](CCCNC(=N)N)NC(=O)[C@H](CCC(=O)O)NC(=O)[C@@H](NC(=O)[C@H](C)NC(=O)[C@@H]1CSSC[C@H](NC(=O)[C@H](CCCNC(=N)N)NC(=O)CC[C@H](NC(=O)CCCCCCCCCCCCCCCCCCC(=O)O)C(=O)O)C(=O)NCC(=O)N[C@@H]([C@@H](C)O)C(=O)N[C@@H](C)C(=O)N[C@@H]([C@@H](C)O)C(=O)N1)[C@@H](C)O)C(C)C [Compound 38, [19CD]-isoGlu-R-C( )-GTAT-C( )-ATERLAHFLVRSSF-Gly(Me)-A-Ile(Me)-LSSTEVGSSTP-NH2] ({C20 diacid-γGlu}-RCGTATCATERLAHFLVRSSF[Sar]A[NMeI]LSSTEVGSSTP-NH2; disulfide 2-7)
	< 1000 µg/mL	90 pM	290 pM	< 1000 µg/mL	CC[C@H](C)[C@@H](C(=O)N[C@@H](CC(C)C)C(=O)N[C@@H](CO)C(=O)N[C@@H](CO)C(=O)N[C@H](C(=O)N[C@@H](CCC(=O)O)C(=O)N[C@H](C(=O)NCC(=O)N[C@@H](CO)C(=O)N[C@@H](CO)C(=O)N[C@H](C(=O)N1C[C@H](O)C[C@H]1C(N)=O)[C@@H](C)O)C(C)C)[C@@H](C)O)N(C)C(=O)[C@H](C)NC(=O)CN(C)C(=O)[C@H](Cc1ccccc1)NC(=O)[C@H](CO)NC(=O)[C@H](CO)NC(=O)[C@H](CCCNC(=N)N)NC(=O)[C@@H](NC(=O)[C@H](CC(C)C)NC(=O)[C@H](Cc1ccccc1)NC(=O)[C@H](Cc1c[nH]cn1)NC(=O)[C@H](C)NC(=O)[C@H](CC(C)C)NC(=O)[C@H](CCCNC(=N)N)NC(=O)[C@H](CCC(=O)O)NC(=O)[C@@H](NC(=O)[C@H](C)NC(=O)[C@@H]1CSSC[C@H](NC(=O)[C@H](CCCNC(=N)N)NC(=O)CC[C@H](NC(=O)CCCCCCCCCCCCCCCCCCC(=O)O)C(=O)O)C(=O)NCC(=O)N[C@@H]([C@@H](C)O)C(=O)N[C@@H](C)C(=O)N[C@@H]([C@@H](C)O)C(=O)N1)[C@@H](C)O)C(C)C [Compound 31, [19CD]-isoGlu-R-C( )-GTAT-C( )-ATERLAHFLVRSSF-Gly(Me)-A-Ile(Me)-LSSTEVGSST-Hyp-NH2] ({C20 diacid-γGlu}-RCGTATCATERLAHFLVRSSF[Sar]A[NMeI]LSSTEVGSST[Hyp]-NH2; disulfide 2-7)
